According to publication PMC11500159, “Synthesis, α-Glucosidase, α-Amylase, and Aldol Reductase Inhibitory Activity with Molecular Docking Study of Novel Imidazo[1,2-a]pyridine Derivatives” (ACS Omega, 2024):

Key:
[1] = target: α-glycosidase (α-GLY) (Saccharomyces cerevisiae, UniProt P53341); assay: α-GLY inhibitory activity (para-nitrophenyl-α-D-glucopyranoside substrate); assay type: biochemical; details: Lineweaver-Burk curves; for Ki: mean ± SEM
Description: In this analysis, a unit of α-GLY activity is defined as the amount of enzyme required to catalyze the hydrolysis of […] of substrate per minute at a standard pH of 7.4.
(§1) The inhibition effects of the novel imidazo[1,2-a]pyridine-based 1,3,4-thiadiazole derivatives were determined with different inhibitor concentrations (at least five) against AR, α-GLY, and α-AMY. The IC50 of the derivatives was calculated from Activity (%) – [inhibitor] graphs for derivatives. The inhibition types and KI values were found by Lineweaver and Burk’s curves.[50],[51]

[2] = target: T1, α-amylase (α-AMY) (Homo sapiens, UniProt P04746); assay: α-AMY inhibitory activity (starch-iodine method, absorbance at 580 nm); assay type: biochemical; details: from Activity (%) - [inhibitor] graphs
T1 sequence (P04746 16-511): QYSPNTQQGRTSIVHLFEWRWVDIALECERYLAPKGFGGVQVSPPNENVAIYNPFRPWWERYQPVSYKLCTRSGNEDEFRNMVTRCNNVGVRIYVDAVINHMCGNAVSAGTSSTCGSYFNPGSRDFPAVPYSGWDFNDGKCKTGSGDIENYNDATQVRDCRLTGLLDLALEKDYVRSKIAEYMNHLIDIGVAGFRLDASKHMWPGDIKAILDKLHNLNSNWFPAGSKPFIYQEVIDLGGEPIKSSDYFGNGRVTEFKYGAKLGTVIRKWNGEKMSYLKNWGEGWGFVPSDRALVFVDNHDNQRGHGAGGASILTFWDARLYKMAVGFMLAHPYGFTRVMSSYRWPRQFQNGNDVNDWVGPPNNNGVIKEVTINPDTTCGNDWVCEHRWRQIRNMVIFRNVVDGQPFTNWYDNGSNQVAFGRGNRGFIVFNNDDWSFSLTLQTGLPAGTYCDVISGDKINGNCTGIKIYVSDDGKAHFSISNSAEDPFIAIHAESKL
Description: The assay involved preparing a substrate solution of starch in NaOH, adjusting the pH with HCl, and diluting the solution to volume. Enzyme and sample solutions were preincubated, mixed with the substrate, and incubated again. The reaction was stopped with HCl, and the absorbance was measured at 580 nm.
as §1

[3] = target: aldose reductase (AR) (Homo sapiens, UniProt P15121); assay: AR inhibitory activity (NADPH consumption, absorbance at 340 nm); assay type: biochemical; details: Lineweaver-Burk curves; mean ± SEM
Description: The activity was assessed using methods that were modified from previously established protocols.[48],[49] The inhibitory activity of AR was assessed by measuring the reduction in absorbance at 340 nm due to the consumption of NADPH. […] The IC50 of the derivatives was calculated from Activity (%) – [inhibitor] graphs for derivatives.

Chain of α-glycosidase (α-GLY) (P53341 whole entry): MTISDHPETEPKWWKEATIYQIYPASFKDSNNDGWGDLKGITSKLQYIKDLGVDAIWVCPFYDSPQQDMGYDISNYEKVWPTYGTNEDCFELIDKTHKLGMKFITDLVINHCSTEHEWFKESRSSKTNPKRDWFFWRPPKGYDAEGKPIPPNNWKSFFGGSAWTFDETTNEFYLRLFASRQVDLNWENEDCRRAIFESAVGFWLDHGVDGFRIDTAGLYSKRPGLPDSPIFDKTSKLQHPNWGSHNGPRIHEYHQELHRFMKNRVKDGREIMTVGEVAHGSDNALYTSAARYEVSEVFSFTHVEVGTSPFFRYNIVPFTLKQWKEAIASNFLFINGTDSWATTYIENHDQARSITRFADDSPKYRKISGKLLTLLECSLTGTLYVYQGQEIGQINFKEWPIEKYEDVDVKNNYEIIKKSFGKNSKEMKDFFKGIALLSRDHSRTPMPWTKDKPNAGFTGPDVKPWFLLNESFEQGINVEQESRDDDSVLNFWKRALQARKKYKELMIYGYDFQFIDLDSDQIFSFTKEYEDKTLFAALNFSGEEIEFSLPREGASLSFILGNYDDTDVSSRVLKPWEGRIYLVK

SMILES	α-GLY inhibition type [1]	melting point [°C]	IC50 [2] [µM]	Ki [1] [µM]	Ki [3] [µM]
COc1ccccc1Nc1nnc(SCC(=O)Nc2ccc(-c3cn4ccccc4n3)cc2)s1 [8i, 2-[(5-(2-Methoxyphenyl)amino-1,3,4-thiadiazol-2-yl)thio]-N-[4-(imidazo[1,2-a]pyridin-2-yl)phenyl]acetamide]	–	104.9	154	–	–
COc1cccc(Nc2nnc(SCC(=O)Nc3ccc(-c4cn5ccccc5n4)cc3)s2)c1 [8h, 2-[(5-(3-Methoxyphenyl)amino-1,3,4-thiadiazol-2-yl)thio]-N-[4-(imidazo[1,2-a]pyridin-2-yl)phenyl]acetamide]	–	138.8	143	–	–
O=C(CSc1nnc(Nc2cccc(Cl)c2)s1)Nc1ccc(-c2cn3ccccc3n2)cc1 [8g, 2-[(5-(3-Chlorophenyl)amino-1,3,4-thiadiazol-2-yl)thio]-N-[4-(imidazo[1,2-a]pyridin-2-yl)phenyl]acetamide]	–	199.2	132	–	–
O=C(CSc1nnc(NC2CCCCC2)s1)Nc1ccc(-c2cn3ccccc3n2)cc1 [8c, 2-[(5-Cyclohexylamino-1,3,4-thiadiazol-2-yl)thio]-N-[4-(imidazo[1,2-a]pyridin-2-yl)phenyl] Acetamide]	–	–	–	77.5 ± 5.74	0.14 ± 0.0133
O=C(CSc1nnc(Nc2ccccc2)s1)Nc1ccc(-c2cn3ccccc3n2)cc1 [8a, 2-[(5-Phenylamino-1,3,4-thiadiazol-2-yl)thio]-N-[4-(imidazo[1,2-a]pyridin-2-yl)phenyl] Acetamide]	–	–	142	33 ± 1.25	0.0349 ± 0.00359
CCNc1nnc(SCC(=O)Nc2ccc(-c3cn4ccccc4n3)cc2)s1 [8d, 2-[(5-Ethylamino-1,3,4-thiadiazol-2-yl)thio]-N-[4-(imidazo[1,2-a]pyridin-2-yl)phenyl] Acetamide]	–	–	122	88.7 ± 17.7	0.0785 ± 0.00824
CCc1ccc(Nc2nnc(SCC(=O)Nc3ccc(-c4cn5ccccc5n4)cc3)s2)cc1 [8b, 2-[(5-(4-Ethylphenyl)amino-1,3,4-thiadiazol-2-yl)thio]-N-[4-(imidazo[1,2-a]pyridin-2-yl)phenyl]acetamide]	noncompetitive inhibition	244.2	113	–	–

Other lines, results leading:

α-GLY inhibition type [1]	melting point [°C]	IC50 [2] [µM]	Ki [1] [µM]	Ki [3] [µM]	SMILES
competitive inhibition	130.1	–	–	–	Cc1ccc(Nc2nnc(SCC(=O)Nc3ccc(-c4cn5ccccc5n4)cc3)s2)cc1 [8e, 2-[(5-(4-Methylphenyl)amino-1,3,4-thiadiazol-2-yl)thio]-N-[4-(imidazo[1,2-a]pyridin-2-yl)phenyl]acetamide]
–	129	81.1	–	–	O=C(CSc1nnc(Nc2ccccc2Cl)s1)Nc1ccc(-c2cn3ccccc3n2)cc1 [8j, 2-[(5-(2-Chlorophenyl)amino-1,3,4-thiadiazol-2-yl)thio]-N-[4-(imidazo[1,2-a]pyridin-2-yl)phenyl]acetamide]
–	265	142	–	–	O=C(CSc1nnc(Nc2ccc(Cl)cc2)s1)Nc1ccc(-c2cn3ccccc3n2)cc1 [8f, 2-[(5-(4-Chlorophenyl)amino-1,3,4-thiadiazol-2-yl)thio]-N-[4-(imidazo[1,2-a]pyridin-2-yl)phenyl]acetamide]
–	216.5	113	–	–	COc1ccc(Nc2nnc(SCC(=O)Nc3ccc(-c4cn5ccccc5n4)cc3)s2)cc1 [8k, 2-[(5-(4-Methoxyphenyl)amino-1,3,4-thiadiazol-2-yl)thio]-N-[4-(imidazo[1,2-a]pyridin-2-yl)phenyl]acetamide]
